Laboratory results as given in US20160199393A1, “METHODS OF TREATING BRAIN ISCHEMIA OR HYPOXIA” (China Medical University, priority 2015, published 2016).

Columns and labels:
xCT = xCT mRNA and protein levels in homogenised ischemic brain tissue of rats with CIR; format: in vivo, rat; details: pretreatment 150 mg/kg, 12 h after reperfusion
Protocol: Eight to ten-week-old male adult male Sprague-Dawley rats, C57BL/6J mice and xCT^−/− mice were anesthetized with 1.5% isoflurane in oxygen, allowed breathing spontaneously, and body temperature was maintained at 37° C. with a heat lamp during surgery for right middle cerebral artery ligation and bilateral common carotid artery clamping as previously described (Chen S T, Hsu C Y, Hogan E L, Maricq H, Balentine J D. A model of focal ischemic stroke in the rat: reproducible extensive cortical infarction. Stroke; a journal of cerebral circulation. 1986; 17(4):738-43, which is incorporated here by reference). Animals were subjected to transient cerebral ischemia for 90 min in rats and 2 h in mice.
Q-PCR analysis was performed as described previously in Hsieh (Hsieh C H, Kuo J W, Lee Y J, Chang C W, Gelovani Liu R S. Construction of mutant TKGFP for real-time imaging of temporal dynamics of HIF-1 signal transduction activity mediated by hypoxia and reoxygenation in tumors in living mice. J Nucl Med. 2009; 50(12):2049-57, which is incorporated here by reference). […] The cDNA was then used for real time PCR quantification of mRNAs using the gene specific forward and reverse primers. […]
To test this hypothesis, the mRNA and protein levels of xCT in ischemic brains with or without 2-methoxyestradiol (2ME2), an inhibitor of HIF-1, at 12 h after CIR were first determined. […]

mouse xCT promoter = test: Mouse xCT promoter luciferase reporter assay in neurons and astrocytes; format: cell-based; details: 24 h incubation, DFO 100 μM, CoCl2 50 μM
Excerpt: The multiple cloning sites (MCS) of pTA-Luc vector (Clontech) was inserted with the cDNA fragment bearing −2000 to +1 bp mouse or human xCT promoter to drive the expression of firefly luciferase gene as pTA-mxCTp-Luc or pTA-hxCTp-Luc. The mutant of hypoxia response element on mouse or human xCT promoter was generated in the pTA-mxCTp-Luc or pTA-hxCTp-Luc as template by Quick Change Site-directed Mutagenesis Kit (Stratagene).
Cells were cotransfected with xCT promoter-driven reporter constructs with or without HRE mutation and Renilla reporter plasmids. At 24 h after transfection, the luciferase activity was examined by a dual luciferase reporter assay system (Promega) according to the manufacturers instructions, and firefly luciferase activity was normalized to the control renilla activity included in the kit. Luciferase activities are expressed as fold-increase over the luciferase activities in un-stimulated conditions.
To test whether the xCT promoter would respond to HIF activation, the mouse xCT 2000-bp promoter was isolated and fused to firefly luciferase coding sequences for use in transient transfection assays with neurons and astrocytes. Normoxic neurons and astrocytes were treated with OGDR or incubated with desferrioxamine (DFO; 100 μM) or cobalt chloride (CoCl2; 50 μM) for 24 h. The DFO and CoCl2 mimics hypoxia by inducing transcription from HIF-1-dependent genes.

NMDAR [1] = target: T1, NMDAR (Mus musculus, UniProt P35438); format: in vivo; details: WT and xCT−/− mice with CIR, 12 h after reperfusion, compared to vehicle
T1 construct: from tissue; host or cells: cerebral hemispheres of WT (C57BL/6J) and xCT-/- mice after CIR, in vivo/ex vivo
Protocol: Animals received 29.6 MBq/kg of ^18F-FSAG in 100 μl of PBS via lateral tail vein injection, and then were euthanized by CO2/O2 asphyxiation at 30 min after injection. After sacrifice, selected tissues of interest were then removed and weighed, and the radioactivity was measured using a γ-counter. The percentage injected dose per gram (% ID/g) was then calculated.
To determine in vivo activation of NMDAR, mice were injected with ^18F-FSAG at 12 h after reperfusion for ex vivo biodistribution studies and positron emission tomography (PET) imaging studies.

NMDAR [2] = details: for hyperfunction of NMDAR (binding radioactivity of 18F-FSAG): WT cortical cells, OGDR, 24 h after reperfusion, 10 μM (SAS 500 μM)
SLC7A11 (xCT) mRNA = test: SLC7A11 mRNA level (Q-PCR) in primary cortical cells exposed to OGDR; format: cell-based, mouse; details: pretreatment with YC-1 5 μM
system xc− [3] = target: T2, system xc− (Mus musculus, UniProt Q9WTR6); test: Extracellular glutamate content in WT cortical cells exposed to OGDR; format: cell-based; details: 24 h after reperfusion, 10 μM (SAS 500 μM)
T2 construct: endogenous in cells; host or cells: primary cortical cells from E17 wild-type C57BL/6J mouse embryos, exposed to OGDR
T2 sequence (Q9WTR6 1-502): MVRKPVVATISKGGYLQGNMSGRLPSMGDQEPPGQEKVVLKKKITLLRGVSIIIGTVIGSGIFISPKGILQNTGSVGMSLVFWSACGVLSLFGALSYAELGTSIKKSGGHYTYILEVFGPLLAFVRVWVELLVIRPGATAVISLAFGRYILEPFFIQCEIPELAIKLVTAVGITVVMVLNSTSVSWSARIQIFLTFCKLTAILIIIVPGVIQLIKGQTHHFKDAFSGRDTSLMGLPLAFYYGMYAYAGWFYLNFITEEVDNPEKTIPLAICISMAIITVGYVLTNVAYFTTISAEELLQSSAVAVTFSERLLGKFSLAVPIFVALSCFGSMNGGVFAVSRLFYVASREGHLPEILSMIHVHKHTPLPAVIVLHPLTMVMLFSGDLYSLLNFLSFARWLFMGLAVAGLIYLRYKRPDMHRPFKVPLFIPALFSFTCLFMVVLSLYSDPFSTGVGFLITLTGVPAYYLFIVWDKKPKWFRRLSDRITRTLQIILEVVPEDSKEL
T2 sequence (P10852 1-526 partner): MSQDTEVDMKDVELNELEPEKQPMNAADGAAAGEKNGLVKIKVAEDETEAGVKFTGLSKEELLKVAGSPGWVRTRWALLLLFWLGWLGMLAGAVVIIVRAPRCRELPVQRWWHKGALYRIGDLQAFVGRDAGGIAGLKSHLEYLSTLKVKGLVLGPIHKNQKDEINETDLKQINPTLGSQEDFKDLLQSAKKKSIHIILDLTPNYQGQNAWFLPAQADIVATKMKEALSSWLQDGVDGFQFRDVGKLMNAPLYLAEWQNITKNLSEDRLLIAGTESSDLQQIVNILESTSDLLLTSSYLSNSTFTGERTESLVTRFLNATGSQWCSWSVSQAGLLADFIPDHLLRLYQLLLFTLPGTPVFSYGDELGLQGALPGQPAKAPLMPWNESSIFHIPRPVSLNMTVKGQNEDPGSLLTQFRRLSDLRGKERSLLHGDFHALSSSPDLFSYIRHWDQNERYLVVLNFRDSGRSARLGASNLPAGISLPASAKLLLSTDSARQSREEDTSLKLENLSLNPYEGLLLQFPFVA
Protocol: (§1) Primary cortical cells were prepared from cerebral cortices of wild-type C57BL/6J or homozygote xCT^−/− mouse embryos in embryonic day 17 as previously described with modification (Goldberg M P, Choi D W. Combined oxygen and glucose deprivation in cortical cell culture: calcium-dependent and calcium-independent mechanisms of neuronal injury. The Journal of neuroscience: the official journal of the Society for Neuroscience, 1993; 13(8):3510-24, which is incorporated here by reference).

WT cortical cells = test: Lactate dehydrogenase (LDH) level in WT cortical cells after OGD/OGDR; format: cell-based, mouse; details: OGDR, 24 h after reperfusion, 10 μM (SAS 500 μM)
Protocol: as §1
The LDH assay was carried out at 24 hours after reperfusion. *P<0.01 compared to drugs-untreated cells (Un), one-way ANOVA. Error bars denote the standard deviation among triplicate experiments.

neurons = test: Annexin V flow cytometric apoptosis assay after OGDR, neurons; format: cell-based, mouse; details: WT cortical cells, 24 h after reperfusion, 10 μM (SAS 500 μM)
Protocol: (§2) Annexin V staining was performed to determine cell apoptosis using the Annexin V-FITC Apoptosis Detection Kit (Sigma-Aldrich) for 10 min at room temperature according to the manufacturers instructions, and then flow cytometric analysis was performed.
(§3) The three-color staining flow cytometric assay using allophycocyanin-microtubule-associated protein 2 (MAP2) for neuron staining, phycoerythrin (PE)-GFAP for astrocyte staining and FITC-annexin V for apoptotic cell staining was performed to count the numbers of neurons, astrocytes, and apoptotic cells. FIGS. 21A and […] show the results of apoptosis in wild type (WT) and xCT^−/− cortical cells treated with OGDR at 24 h after reperfusion. *P<0.01 compared to WT without OGDR, Student's t-test. ^#P<0.01 compared to WT with OGDR, Student's t-test. From FIGS. 21A and 21B it was observed that that smaller numbers of apoptotic cells were present in xCT^−/− neurons and astrocytes after OGDR treatment.

astrocytes = test: Annexin V flow cytometric apoptosis assay after OGDR, astrocytes; format: cell-based, mouse; details: WT cortical cells, 24 h after reperfusion, 10 μM (SAS 500 μM)
Protocol: as §2, §3

system xc− [4] = target: T3, system xc− (Homo sapiens, UniProt Q9UPY5); details: Dixon et al., eLife 2014; cited from earlier work
T3 sequence (Q9UPY5 1-501): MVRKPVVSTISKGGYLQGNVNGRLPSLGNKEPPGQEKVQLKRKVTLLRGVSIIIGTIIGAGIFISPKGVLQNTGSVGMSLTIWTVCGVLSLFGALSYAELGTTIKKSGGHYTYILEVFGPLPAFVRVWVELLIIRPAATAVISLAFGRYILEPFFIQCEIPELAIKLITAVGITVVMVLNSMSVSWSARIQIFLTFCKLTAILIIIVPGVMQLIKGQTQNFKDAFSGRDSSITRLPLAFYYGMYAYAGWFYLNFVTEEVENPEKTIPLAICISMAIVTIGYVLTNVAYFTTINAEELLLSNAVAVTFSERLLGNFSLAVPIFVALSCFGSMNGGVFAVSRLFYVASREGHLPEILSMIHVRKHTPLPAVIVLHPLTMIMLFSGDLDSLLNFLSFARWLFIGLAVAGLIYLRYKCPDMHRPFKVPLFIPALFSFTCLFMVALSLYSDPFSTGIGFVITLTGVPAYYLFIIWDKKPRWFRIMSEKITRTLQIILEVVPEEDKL
T3 sequence (P08195 1-529 partner): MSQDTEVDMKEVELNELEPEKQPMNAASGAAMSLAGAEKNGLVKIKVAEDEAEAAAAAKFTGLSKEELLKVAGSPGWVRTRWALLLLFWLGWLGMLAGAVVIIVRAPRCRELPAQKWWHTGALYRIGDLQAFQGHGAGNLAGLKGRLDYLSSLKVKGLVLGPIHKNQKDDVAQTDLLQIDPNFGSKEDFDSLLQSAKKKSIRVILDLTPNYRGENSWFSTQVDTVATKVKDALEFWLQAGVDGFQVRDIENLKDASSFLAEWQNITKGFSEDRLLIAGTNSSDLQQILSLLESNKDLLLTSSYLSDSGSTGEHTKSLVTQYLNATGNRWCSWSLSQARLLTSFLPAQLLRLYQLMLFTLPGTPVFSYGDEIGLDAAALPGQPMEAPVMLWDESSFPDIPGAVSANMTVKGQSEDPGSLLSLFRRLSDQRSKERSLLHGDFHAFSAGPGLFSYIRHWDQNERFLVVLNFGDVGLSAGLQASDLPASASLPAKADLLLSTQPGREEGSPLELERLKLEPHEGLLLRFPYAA

COc1cc2c(cc1O)CC[C@@H]1[C@@H]2CC[C@]2(C)[C@@H](O)CC[C@@H]12 [2ME2, 2-methoxyestradiol]
xCT mRNA expression level (xCT): significantly inhibited
xCT protein expression level (xCT): significantly inhibited

[Cl][Co][Cl] [CoCl2, cobalt chloride]
transcriptional activation of xCT (reporter activity of mouse xCT promoter) (mouse xCT promoter): increased

CC(=O)N(O)CCCCCNC(=O)CCC(=O)N(O)CCCCCNC(=O)CCC(=O)N(O)CCCCCN [DFO, desferrioxamine]
transcriptional activation of xCT (reporter activity of mouse xCT promoter) (mouse xCT promoter): increased

C[C@]12N[C@H](Cc3ccccc31)c1ccccc12 [MK801]
18F-FSAG accumulation in ipsilateral and contralateral hemispheres (NMDAR [1]): significant reduction
binding of 18F-FSAG (NMDAR [2]; cortical cells, pretreatment 10 μM): blocked

OCc1ccc(-c2nn(Cc3ccccc3)c3ccccc23)o1 [YC-1]
OGDR-increased SLC7A11 mRNA expression (SLC7A11 (xCT) mRNA): inhibited

CCOc1ccccc1-n1c(C(C)N2CCN(C(=O)COc3ccc(Cl)cc3)CC2)nc2ccccc2c1=O (stereo not drawn) [erastin]
OGDR-induced glutamate release (extracellular glutamate content) (system xc− [3]): inhibited
LDH levels (WT cortical cells): inhibited
apoptosis in neurons (neurons): inhibited
apoptosis in astrocytes (astrocytes): inhibited
hyperfunction of NMDAR (binding radioactivity of 18F-FSAG) (NMDAR [2]): inhibited

Cc1ccc(NC(=O)c2ccc(CN3CCN(C)CC3)cc2)cc1Nc1nccc(-c2cccnc2)n1 [imatinib]
system xc− inhibition activity (system xc− [4]): lacking system xc^− inhibition activity

CNC(=O)c1cc(Oc2ccc(NC(=O)Nc3ccc(Cl)c(C(F)(F)F)c3)c(F)c2)ccn1 [regorafenib]
OGDR-induced glutamate release (extracellular glutamate content) (system xc− [3]): inhibited
LDH levels (WT cortical cells): inhibited
apoptosis in neurons (neurons): inhibited
apoptosis in astrocytes (astrocytes): inhibited
hyperfunction of NMDAR (binding radioactivity of 18F-FSAG) (NMDAR [2]): inhibited
